In patent publication US20240158404A1, “MODULATORS OF ALPHA-1 ANTITRYPSIN” (Vertex Pharmaceuticals Incorporated, priority 2022, published 2024):

Molecular target: T1, AAT (Homo sapiens, UniProt P01009, E366K)
T1 construct: expressed in transfected cells; host or cells: NL20 human bronchial epithelial cells (NL20-SI cell line), with doxycycline added alongside the compounds
Test: Compound Quality score (potency in AAT functional assay multiplied by unbound clearance)
Settings: compound potency (EC50) x unbound clearance; class symbols
Excerpt: As used herein, the term “Compound Quality” refers to the potency of a compound multiplied (x) by the compound's unbound clearance as measured using the assays described in Example 6.
The terms “unbound clearance” refer to unbound intrinsic clearance (unbound CLint) in hepatocytes—the intrinsic clearance a drug would have in the absence of protein binding. Unbound CLint=CLint,hep/fu,hep, where CLint,hep is intrinsic clearance in hepatocytes and fu,hep is unbound fraction in hepatocytes.
A key consideration for the selection of compounds suitable for clinical development is the projection of human dose as described in Equations 1-3. Two key parameters that comprise the dose equation are the unbound clearance of a compound and the plasma efficacious exposure (also referred to herein as compound potency). Together these parameters are known to one skilled in the art as a measurement of Compound Quality and suitability for advancement into clinical development. Thus, when evaluating AAT modulator compounds, one needs to consider both the potency and unbound clearance parameters (i.e., Compound Quality). The relationship between these two parameters can be challenging to predict.
The values provided in the table below are calculated by multiplying the EC50 of each of the compounds by the result from the clearance assay procedures described in Section C above and rounded to two significant figures. In the table below, the following meanings apply for Compound Quality (i.e., compound potency x unbound clearance) values: “++++” means ≤0.2; “+++” means >0.20 and ≤0.30; “++” means >0.30 and ≤0.40; “+” means >0.40 and ≤0.50.

T1 sequence (P01009 25-418 E366K): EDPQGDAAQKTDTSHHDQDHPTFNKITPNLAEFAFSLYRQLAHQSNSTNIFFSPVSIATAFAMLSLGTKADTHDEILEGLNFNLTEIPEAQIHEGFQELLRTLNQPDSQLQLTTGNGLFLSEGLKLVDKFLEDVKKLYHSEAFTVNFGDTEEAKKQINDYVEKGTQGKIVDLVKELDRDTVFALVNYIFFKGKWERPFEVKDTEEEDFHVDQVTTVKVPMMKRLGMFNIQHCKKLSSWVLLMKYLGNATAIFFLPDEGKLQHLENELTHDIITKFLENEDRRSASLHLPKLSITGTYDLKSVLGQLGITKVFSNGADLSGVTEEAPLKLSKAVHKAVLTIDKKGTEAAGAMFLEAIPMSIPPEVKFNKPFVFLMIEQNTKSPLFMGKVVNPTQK

Row | SMILES | Compound Quality
1 | [2H]C1([2H])C([2H])([2H])C([2H])([2H])[C@](O)(c2c(-c3ccc(C(=O)O)cc3)c3c(F)c4[nH]ncc4cc3n2-c2ccc(F)c(OC)c2)[C@@]([2H])(OC)C1([2H])[2H] [Compound 30] | ++++ (“++++” means ≤0.2)
2 | [2H]C([2H])([2H])OCC(O)(CC)c1c(-c2ccc(C(=O)O)cc2)c2c(F)c3[nH]ncc3cc2n1-c1ccc(F)c(OC([2H])([2H])[2H])c1 (stereo not shown) [Compound 45] | +++ (“+++” means >0.20 and ≤0.30)
3 | CC[C@@](O)(COC)c1c(-c2ccc(C(=O)O)cc2)c2c(F)c3[nH]ncc3cc2n1-c1cc(F)c(F)c(OC)c1 [Compound 16] | ++ (“++” means >0.30 and ≤0.40)
4 | CCC(O)(COC)c1c(-c2ccc(C(=O)O)c(C)c2)c2c(F)c3[nH]ncc3cc2n1-c1cccc(F)c1 (stereo not shown) [Compound 44] | + (“+” means >0.40 and ≤0.50)
5 | COC1CCCC1(O)c1c(-c2ccc(C(=O)O)cc2)c2c(F)c3[nH]ncc3cc2n1-c1ccc(F)c(C)c1 (stereo not shown) [Compound 43] | + (“+” means >0.40 and ≤0.50)
6 | CO[C@H]1CCCCC1(O)c1c(-c2ccc(C(=O)O)cc2)c2c(F)c3[nH]ncc3cc2n1-c1ccc(F)c(F)c1F (stereo partly shown) [Compound 60] | +++ (“+++” means >0.20 and ≤0.30)
7 | [2H]C([2H])([2H])Oc1cc(-n2c(C3(O)C([2H])([2H])C([2H])([2H])C([2H])([2H])C([2H])([2H])C3([2H])OC([2H])([2H])[2H])c(-c3ccc(C(=O)O)cc3)c3c(F)c4[nH]ncc4cc32)ccc1F (stereo not shown) [Compound 32] | +++ (“+++” means >0.20 and ≤0.30)
8 | CCC(O)(COC)c1c(-c2ccc(C(=O)O)cc2F)c2c(F)c3[nH]ncc3cc2n1-c1ccc(F)c(C)c1 (stereo not shown) [Compound 63] | + (“+” means >0.40 and ≤0.50)
9 | CCC(O)(COC)c1c(-c2ccc(C(=O)O)c(C)c2)c2c(F)c3[nH]ncc3cc2n1-c1ccc(F)cc1 (stereo not shown) [Compound 35] | ++++ (“++++” means ≤0.2)
10 | CCOC1CCCC1(O)c1c(-c2ccc(C(=O)O)cc2)c2c(F)c3[nH]ncc3cc2n1-c1ccc(F)c(OC)c1 (stereo not shown) [Compound 58] | + (“+” means >0.40 and ≤0.50)
11 | COC1COCCC1(O)c1c(-c2ccc(C(=O)O)cc2)c2c(F)c3[nH]ncc3cc2n1-c1ccc(F)c(C)c1 (stereo not shown) [Compound 59] | ++ (“++” means >0.30 and ≤0.40)
12 | CCc1cc(-c2c(C(O)(CC)COC)n(-c3ccc(F)c(F)c3)c3cc4cn[nH]c4c(F)c23)ccc1C(=O)O (stereo not shown) [Compound 48] | + (“+” means >0.40 and ≤0.50)
13 | CO[C@H]1CCCCC1(O)c1c(-c2ccc(C(=O)O)c(C)c2)c2c(F)c3[nH]ncc3cc2n1-c1ccc(F)cc1 (stereo partly shown) [Compound 56] | +++ (“+++” means >0.20 and ≤0.30)
14 | COC1CCCC1(O)c1c(-c2ccc(C(=O)O)cc2)c2c(F)c3[nH]ncc3cc2n1-c1ccc(F)c(F)c1 (stereo not shown) [Compound 28] | +++ (“+++” means >0.20 and ≤0.30)
15 | [2H]C([2H])([2H])C([2H])([2H])C(O)(COC)c1c(-c2ccc(C(=O)O)cc2)c2c(F)c3[nH]ncc3cc2n1-c1ccc(F)c(F)c1 (stereo not shown) [Compound 21] | ++ (“++” means >0.30 and ≤0.40)
16 | COC1CCCCC1(O)c1c(-c2ccc(C(=O)O)cc2)c2c(F)c3[nH]ncc3cc2n1-c1cccc(F)c1 (stereo not shown) [Compound 25] | +++ (“+++” means >0.20 and ≤0.30)
17 | COc1cc(-n2c(C3(O)CCCC[C@@H]3OC)c(-c3ccc(C(=O)O)c(C)c3)c3c(F)c4[nH]ncc4cc32)ccc1F (stereo partly shown) [Compound 55] | ++ (“++” means >0.30 and ≤0.40)
18 | [2H]C([2H])([2H])Oc1cc(-n2c(C(O)(CC)COC)c(-c3ccc(C(=O)O)c(CC)c3)c3c(F)c4[nH]ncc4cc32)ccc1F (stereo not shown) [Compound 65] | + (“+” means >0.40 and ≤0.50)
19 | COC1CCCC1(O)c1c(-c2ccc(C(=O)O)cc2)c2c(F)c3[nH]ncc3cc2n1-c1ccc(F)cc1 (stereo not shown) [Compound 27] | ++ (“++” means >0.30 and ≤0.40)
20 | CC[C@@](O)(COC)c1c(-c2ccc(C(=O)O)cc2)c2c(F)c3[nH]ncc3cc2n1-c1cc(C)c(F)c(F)c1 [Compound 42] | ++ (“++” means >0.30 and ≤0.40)
21 | CO[C@H]1CCCCC1(O)c1c(-c2ccc(C(=O)O)cc2)c2c(F)c3[nH]ncc3cc2n1-c1cc(F)c(F)cc1F (stereo partly shown) [Compound 61] | +++ (“+++” means >0.20 and ≤0.30)
22 | CC[C@](O)(COC)c1c(-c2ccc(C(=O)O)cc2)c2c(F)c3[nH]ncc3cc2n1-c1ccc(F)c(C)c1 [Compound 7] | +++ (“+++” means >0.20 and ≤0.30)
23 | [2H]C([2H])([2H])Oc1cc(-n2c([C@@]3(O)C([2H])([2H])C([2H])([2H])C([2H])([2H])C([2H])([2H])[C@]3([2H])OC)c(-c3ccc(C(=O)O)cc3)c3c(F)c4[nH]ncc4cc32)ccc1F [Compound 31] | ++ (“++” means >0.30 and ≤0.40)

Row | SMILES | Compound Quality
24 | CC[C@](O)(COC)c1c(-c2ccc(C(=O)O)cc2)c2c(F)c3[nH]ncc3cc2n1-c1ccc(F)c(F)c1 [Compound 6] | ++ (“++” means >0.30 and ≤0.40)
25 | CCOCC(O)(CC)c1c(-c2ccc(C(=O)O)cc2)c2c(F)c3[nH]ncc3cc2n1-c1ccc(F)c(OC)c1 (stereo not shown) [Compound 9] | +++ (“+++” means >0.20 and ≤0.30)
26 | CCOCC(O)(c1c(-c2ccc(C(=O)O)cc2)c2c(F)c3[nH]ncc3cc2n1-c1ccc(F)cc1)C1CC1 (stereo not shown) [Compound 14] | ++ (“++” means >0.30 and ≤0.40)
27 | CCC(O)(CCOC)c1c(-c2ccc(C(=O)O)cc2)c2c(F)c3[nH]ncc3cc2n1-c1ccc(F)cc1 (stereo not shown) [Compound 41] | + (“+” means >0.40 and ≤0.50)
28 | [2H]C([2H])([2H])Oc1cc(-n2c(C3(O)CCCC[C@@H]3OC)c(-c3ccc(C(=O)O)c(C)c3)c3c(F)c4[nH]ncc4cc32)ccc1F (stereo partly shown) [Compound 54] | ++++ (“++++” means ≤0.2)
29 | [2H]C([2H])([2H])C([2H])([2H])C(O)(COC)c1c(-c2ccc(C(=O)O)cc2)c2c(F)c3[nH]ncc3cc2n1-c1ccc(F)c(C)c1 (stereo not shown) [Compound 38] | +++ (“+++” means >0.20 and ≤0.30)
30 | COc1cc(-n2c(C3(O)CCCCC3F)c(-c3ccc(C(=O)O)cc3)c3c(F)c4[nH]ncc4cc32)ccc1F (stereo not shown) [Compound 66] | ++ (“++” means >0.30 and ≤0.40)
31 | COC1CCCCC1(O)c1c(-c2ccc(C(=O)O)cc2)c2c(F)c3[nH]ncc3cc2n1-c1ccc(F)cc1 (stereo not shown) [Compound 26] | ++++ (“++++” means ≤0.2)
32 | [2H]C([2H])([2H])Oc1cc(-n2c(C3(O)CCCCC3OC)c(-c3ccc(C(=O)O)cc3)c3c(F)c4[nH]ncc4cc32)ccc1F (stereo not shown) [Compound 22] | ++++ (“++++” means ≤0.2)
33 | CCC(O)(COC)c1c(-c2ccc(C(=O)O)c(C)c2)c2c(F)c3[nH]ncc3cc2n1-c1ccc(F)c(Cl)c1 (stereo not shown) [Compound 36] | +++ (“+++” means >0.20 and ≤0.30)
34 | [2H]C([2H])([2H])OCC(O)(CC)c1c(-c2ccc(C(=O)O)cc2)c2c(F)c3[nH]ncc3cc2n1-c1ccc(F)c(OC)c1 (stereo not shown) [Compound 53] | ++ (“++” means >0.30 and ≤0.40)
35 | CCC(O)(COC(C)C)c1c(-c2ccc(C(=O)O)cc2)c2c(F)c3[nH]ncc3cc2n1-c1ccc(F)c(OC)c1 (stereo not shown) [Compound 13] | +++ (“+++” means >0.20 and ≤0.30)
36 | [2H]C([2H])([2H])OCC(O)(CC)c1c(-c2ccc(C(=O)O)cc2)c2c(F)c3[nH]ncc3cc2n1-c1ccc(F)c(F)c1 (stereo not shown) [Compound 33] | +++ (“+++” means >0.20 and ≤0.30)
37 | CCOCC(O)(CC)c1c(-c2ccc(C(=O)O)cc2)c2c(F)c3[nH]ncc3cc2n1-c1cccc2cnn(C)c12 (stereo not shown) [Compound 64] | ++ (“++” means >0.30 and ≤0.40)
38 | CC[C@@](O)(COC)c1c(-c2ccc(C(=O)O)cc2)c2c(F)c3[nH]ncc3cc2n1-c1cccc(F)c1 [Compound 15] | ++ (“++” means >0.30 and ≤0.40)
39 | CO[C@H]1CCCCC1(O)c1c(-c2ccc(C(=O)O)c(F)c2)c2c(F)c3[nH]ncc3cc2n1-c1ccc(F)cc1 (stereo partly shown) [Compound 67] | ++ (“++” means >0.30 and ≤0.40)
40 | [2H]C([2H])([2H])Oc1cc(-n2c(C3(O)CCCC[C@@H]3OC)c(-c3ccc(C(=O)O)cc3)c3c(F)c4[nH]ncc4cc32)ccc1F (stereo partly shown) [Compound 51] | ++ (“++” means >0.30 and ≤0.40)
41 | [2H]C([2H])([2H])C([2H])([2H])C(O)(COC)c1c(-c2ccc(C(=O)O)cc2)c2c(F)c3[nH]ncc3cc2n1-c1ccc(F)cc1 (stereo not shown) [Compound 37] | +++ (“+++” means >0.20 and ≤0.30)
42 | [2H]C([2H])([2H])C([2H])([2H])C(O)(COC)c1c(-c2ccc(C(=O)O)cc2)c2c(F)c3[nH]ncc3cc2n1-c1ccc(F)cc1 (stereo not shown) [Compound 18] | +++ (“+++” means >0.20 and ≤0.30)
43 | COc1cc(-n2c(C3(O)CCCCC3OC)c(-c3ccc(C(=O)O)cc3)c3c(F)c4[nH]ncc4cc32)ccc1F (stereo not shown) [Compound 24] | +++ (“+++” means >0.20 and ≤0.30)
44 | [2H]C([2H])([2H])C([2H])([2H])C(O)(COC)c1c(-c2ccc(C(=O)O)cc2)c2c(F)c3[nH]ncc3cc2n1-c1ccc(F)c(C)c1 (stereo not shown) [Compound 19] | +++ (“+++” means >0.20 and ≤0.30)
45 | COC1CCCCC1(O)c1c(-c2ccc(C(=O)O)cc2)c2c(F)c3[nH]ncc3cc2n1-c1ccc(F)c(F)c1 (stereo not shown) [Compound 23] | +++ (“+++” means >0.20 and ≤0.30)
46 | CCC(O)(COC)c1c(-c2ccc(C(=O)O)cc2F)c2c(F)c3[nH]ncc3cc2n1-c1ccc(F)c(F)c1 (stereo not shown) [Compound 62] | + (“+” means >0.40 and ≤0.50)
